The values below come from patent US8609361B2, “Real time electrophysiological testing of agents of interest for treatment of amyloid-type diseases” (Universidad de Concepcion, priority 2007, dated 2013).

For data set [1], the system named is AMPA and NMDA receptors. The settings on record: reported in the art; cited from earlier work.
The nature of data set [2]: Aβ peptide aggregation in solution followed by turbidity (optical density). The settings on record: about 100 μM peptide in PBS pH 7.4, stirring about 600 rpm, about 37° C., after 120 minutes. It counts as physicochemical. As for the experimental part: FIG. 2A is a graph indicating the Aβ peptide aggregation structure progress in solution. […] The solution absorbency measurement is observed as a change in optical densities (D.O.), which reflects formation of complex structures, amyloid aggregates. Images B-D correspond to ultra micro photographs obtained with an electronic microscope. The recognition of different structures formed during the aggregation process is possible. Aggregates obtained at 120 min and fibers obtained at 5 days of aggregation are readily noticed.
In order to generate the working solution, these portions are defrosted under a laminar flow bell and diluted in sterile PBS at pH 7.4. 700 μl PBS are added to the 25 μl of each peptide portion, obtaining a final work volume of 725 μl, with peptide at an approximate concentration of 100 μM. This peptide solution is defined as “Soluble Peptide” and it is mainly formed by Aβ peptide monomers. This soluble peptide is induced to aggregation by stirring at approximately 600 rpm at temperature around 37° C. During this process, the solution optical density is determined at 405 nm every 15 minutes for a total time of 120 minutes. […] This solution is called “Aggregate Peptide”, and electronic microscope inspection has determined that it corresponds to a heterogeneous structure population, among which amorphous aggregate shapes, 100 nm protofibril, and short fibers are noted.

The subject of data set [3] is neurons. Put plainly: whole-cell patch clamp, membrane potential. The settings on record: low concentrations (preferably less than 1 μM, more preferably 0.5 μM Aβ). It counts as cell-based, mice. Background: The patch-clamp technique gives a direct electrical read-out from membranes.
For data set [4], the system named is plasma membrane of hippocampal neurons. Put plainly: cell-attached to perforated patch-clamp recording with the agent in the glass pipette. The class given is cell-based, mice. As for the experimental part: In absence of Aβ or gramicidin, cell attached recordings are stable for more than 60 min.
Control is the charge in cell-attached configuration and reflects the recording of the glass pipette properties partially compensated to visualize part of the transient. Negative pressure reflects the charge obtained with a routine whole-cell configuration. Gramicidin and amphotericin are antibiotics routinely used to generate perforates. Data are ±S.E. average (n=6; different experiments).
The experimental evidence of the invention allows establishing that conductance changes may be the result of the forming of a cationic-type pore, very similar to that generating gramicidin. […] Basically, this invention procedure is formed by two stages: • b) Exposing a small area or patch of plasma membrane, in a preferable embodiment said membranes are neuron membranes, to peptide aggregates under study and/or to active ingredients, and/or compounds of interest. • c) Determining, measuring, and quantifying electric parameters of membranes exposed to these aggregates; in a preferable embodiment, the parameter is conductance (inverse of electrical resistance resulting from resistance range and the glass pipette potential).
The method described in this invention uses a variation of the technique known as patch cell-attached to study the Aβ peptide effects. In this invention embodiment, records very stable in time are obtained and maintained for more than 5 minutes, preferably for more than 15 minutes, and more preferably for more than 30 minutes. At the same time, this embodiment provides an intrinsic noise level under 5 pA, preferably under 3 pA, and more preferably under 1 pA, which may be due to the registry being obtained from a small cell area that normally contains very few ionic channels. […] However, the most important characteristics in this event is the evidence of the fast capacitative resistance component, which reflects formation of a perforated form that supports the conclusion that pores are generated in the membrane (see FIGS. 1 and 2).
Animals are treated and handled according to the NIH recommendations. 18-day pregnant mice (C57BL7J6) are anesthetized with ether and sacrificed through cervical dislocation. Embryo are quickly removed and beheaded with sterile material. Brains are removed and kept in cold Hank medium.
The midbrain is separated in order to expose the hippocampus area, which is dissected from the brain and mechanically dispersed using trypsin, collagenase, and DNAsa III. Neurons are placed (“planted”) in 35 mm dishes covered with poly-L-lisine at a density of 350000 neurons per ml.
Neurons are left to grow in vitro during 12 days, and then recorded using electro-physiology. The means of culture is 80% MEM, 2 mM glutamine, and 10% bovine fetal serum. The means are changed every three days. Every reagent used is dissolved in PBS, which is used as control.
Peptide aggregates are diluted to working concentration and were made at concentrations from 0.01 μM to 50 μM, preferably between 0.03 and 20, more preferably 0.05 and 10 μM. This aggregate is diluted in an internal solution (called so because it artificially imitates intra-cell fluid) mainly formed by KCl, BAPTA, calcium, and ATP, as previously described. The aggregate is diluted in this solution, which is loaded into the pipette to be used for Patch-Clamp. This solution is taken into a tuberculin syringe, from which the needle has been removed, and a small capillary-HPLC is added. With this modified syringe, the internal solution volume is taken with no Aβ aggregates as control. It may also be used with the aggregate and/or other molecules of biologic interest in the event evaluations and determining the said molecules' pharmacologic activities is required.
Using the capillary-HPLC in the syringe, the internal solution is introduced into the glass pipette, slowly removing it as the pipette becomes full in order to reduce bubbles. […]

With `N#Cc1cc2[nH]c(=O)c(=O)[nH]c2cc1[N+](=O)[O-]` [CNQX], the “inhibition of peptide effects on calcium levels” value in data set [1] is “inhibited”.
With “Aβ: Synthetic peptide Aβ1-40 (TOCRIS or Sigma), human sequence of β-amyloid peptide, aggregated by stirring at 37° C.”, the “solution optical density at 405 nm” value in data set [2] is 0.2-0.3. The “changes in membrane potential” value in data set [3] was “have not shown significant changes in membrane potential”. For the same compound, the “conversion of the cell-attached recording into a perforated recording (increased capacitative peak and late conductance)” value in data set [4] (500 nM in the glass pipette solution, FIG. 1A) is “spontaneously convert the recording into a perforated variation of the technique”. In addition, the “charge transferred by the cellular membrane during a 10 mV pulse” value in data set [4] (FIG. 3, n=6) is recorded as “form perforations in the membrane”. Further, the “input current following the high-resistance seal formation” value in data set [4] (in the presence of Aβ) is −40 to −70 pA. The compound further showed a current range in data set [4] (low-concentration peptide, few pores in the cell) of at most 50 pA. In addition, in data set [4] (measurements and recordings of the invention method), the membrane de-polarization result is reported as “has not been detected”.
With gramicidin, in data set [4] (50 μM in the glass pipette, FIG. 1B), the development of perforation entry was “typical perforation”.
